According to patent US20070021501A1, “Methods of treating epileptogenesis” (priority 2005, published 2007):
“And” between values parts separate entries of the source, which are not always exact repeats. Identical values can stand only once.

What was measured:
[1] = system: lithium-pilocarpine model of temporal lobe epilepsy in the rat; experiment: Quantification of cell densities in hippocampus, thalamus and cortex after Li-pilo SE (Example 1); assay type: in vivo; details: for damage compared to saline-saline rats / cell loss compared to saline-saline rats: DZP; for more damage (worsening of cell loss) compared with pilo-DZP rats: TC 10 mg/kg
Protocol: Quantification of cell densities was performed at 6 days after SE on 8 pilo-DZP, 8 pilo-TC10, 7 pilo-TC30, 7 pilo-TC60, and 6 saline-saline rats.
Cell counts were performed twice in a blind manner and were the average of at least 3 values from 2 adjacent sections in each individual animal. Counts involved only cells larger than 10 μm, smaller ones being considered as glial cells.
For the comparison of the characteristics of SE in pilo-saline and pilo-test compound animals, a non-paired Student's t-test was used. The comparison between the number of rats seizing in both groups was performed by means of a Chi square test. For neuronal damage, statistical analysis between groups was performed using ANOVA followed by a Fisher's test for multiple comparisons using the Statview software (Fisher R A, 1946a, Statistical Methods for Research Workers (10th edition) Oliver & Boyd, Edinburgh; Fisher R A, 1946b, The Design of Experiments (4th edition) Oliver & Boyd, Edinburgh) Behavioral and EEG Characteristics of Lithium-pilocarpine Status Epilepticus

[2] = system: lithium-pilocarpine model of temporal lobe epilepsy in the rat; experiment: Latency to and frequency of spontaneous seizures, video recording (Example 2); assay type: in vivo, Sprague-Dawley rats
Protocol: The effects of DZP and the 4 doses of TC on epileptogenesis were investigated by daily video recording of the animals for 10 h per day. Video recording was performed for 4 weeks during which the occurrence of the first seizure was noted as well as the total number of seizures over the whole period. Animals were then taken off the video recording system and kept for 4 additional weeks in our animal facilities before they were sacrificed after a total period of 8 weeks of epilepsy.

[3] = system: lithium-pilocarpine model of temporal lobe epilepsy in the rat; experiment: Latency to and frequency of spontaneous recurrent seizures (SRS), lithium-pilocarpine model (Example 1); assay type: in vivo
Protocol: The bilateral EEG cortical activity was recorded during the whole duration of SE and behavioral changes were noted.
The effects of increasing doses of the test compound were studied on 3 groups of rats. The animals of the first group received 10 mg/kg of the test compound, i.p., 1 h after the onset of SE (pilo-TC10) while the animals of groups 2 and 3 received 30 and 60 mg/kg of the test compound (pilo-TC30 and pilo-TC60), respectively.
The control group received saline instead of pilocarpine and the test compound (saline-saline). […] Pilo-DZP received a second injection of 1 mg/kg DZP on the day of SE at about 10 h after the first one. Thereafter, Pilo-DZP and saline-saline rats received twice daily an equivalent volume of saline. […]
To calculate the frequency of SRS in pilocarpine-exposed rats, the seizure severity and distinguished stage III (clonic seizures of facial muscles and anterior limbs) and stage IV-V seizures (rearing and falling) was considered. […] The frequency of more severe stage IV-V SRS was highest during the first week in most groups, except pilo-TC30 and TC60 with late seizure onset where the SRS frequency was constant over the whole 4 weeks in TC30 group and over the first two weeks in the pilo-TC60 group with late SRS onset in which no stage IV-V seizures where no seizures recorded after the second week.

[4] = dorsal entorhinal cortex layers III-IV
[5] = ventral entorhinal cortex layers III-IV

## CN1C(=O)CN=C(c2ccccc2)c2cc(Cl)ccc21 [DZP, diazepam]
[1]; dentate gyrus granule cell layer
  damage compared to saline-saline rats: did not show visible damage
[1]; dorsal entorhinal cortex layer II
  damage compared to saline-saline rats: 9%
[1]; [4]
  damage compared to saline-saline rats: 15%
[1]; hilus of dentate gyrus
  cell loss compared to saline-saline rats: 73%
[1]; hippocampus CA1 pyramidal cell layer
  cell loss compared to saline-saline rats: 70% and 75%
[1]; hippocampus CA3a
  cell loss compared to saline-saline rats: 54%
[1]; hippocampus CA3b
  cell loss compared to saline-saline rats: 31%
[1]; lateral thalamic nucleus
  cell loss compared to saline-saline rats: 91%
[1]; mediodorsal thalamic nucleus
  cell loss compared to saline-saline rats: 56%
[1]; piriform cortex layer II
  cell loss compared to saline-saline rats: 53%
[1]; piriform cortex layers III-IV
  cell loss compared to saline-saline rats: total
[1]; ventral entorhinal cortex layer II
  damage compared to saline-saline rats: totally preserved
[1]; [5]
  cell loss compared to saline-saline rats: 44%
[2]; DZP 2.5 mg/kg i.m.
  frequency of spontaneous seizures over the four weeks of recording: tendency to be higher

## NC(=O)OC[C@@H](O)c1ccccc1Cl [TC]
[3]; TC 10 mg/kg, weeks 3 and 4
  frequency of stage III SRS: significantly increased over pilo-DZP values
[3]; TC 60 mg/kg, one rat
  occurrence of epilepsy: did not become epileptic in a delay of 9 months post-SE
[1]; [4]
  more damage (worsening of cell loss) compared with pilo-DZP rats: 28%
[1]; [5]
  more damage (worsening of cell loss) compared with pilo-DZP rats: 35%
[1]; TC 30 mg/kg, hippocampus CA1 pyramidal layer
  cell loss: 35%
[1]; TC 60 mg/kg, hippocampus CA1 pyramidal layer
  cell loss: 16%
[1]; TC 60 mg/kg, piriform cortex layer II
  reduction of neuronal damage recorded in the pilo-DZP rats: 41%
[1]; TC 60 mg/kg, piriform cortex layers III-IV
  reduction of neuronal damage recorded in the pilo-DZP rats: 44%
[1]; TC 60 mg/kg, ventral entorhinal cortex layers III-IV
  neuroprotection compared to pilo-DZP rats: 31%
[1]; pilo-test compound animals (range over doses), hilus of dentate gyrus
  cell loss: 69-72%
[1]; test compound 60 mg/kg, CA3b
  protection compared to pilo-DZP rats: significantly neuroprotective
[1]; test compound, CA3a area
  protection compared to pilo-DZP rats: did not afford any protection
[2]; TC 30 mg/kg
  frequency of spontaneous seizures over the four weeks of recording: tendency to be higher
[2]; TC 90 mg/kg (4/11)
  percentage of rats with short latencies to seizures (shorter than 40 days after SE): 36%
[2]; TC 120 mg/kg
  percentage of non-epileptic rats (no seizure over 150 days post-SE): 45%
[2]; TC 120 mg/kg (1/9)
  percentage of rats with short latencies to seizures (shorter than 40 days after SE): 11%
[2]; TC60, 90 and 120 groups
  frequency of spontaneous seizures over the four weeks of recording: lower
